Values joined by “and” are separate entries in the source; they are usually repeats but may differ in a detail not shown here. Identical values can stand only once.
Key:
[1] = tested on: peritoneal macrophages; assay: Activation of peritoneal macrophages with additional in vitro stimulation with PMA (ferricytochrome C reduction); assay type: in vivo, female HAN-NmRI strain mice; settings: for increase of macrophage activity: versus control
Procedure: (§1) Immunological studies were performed on female HAN-NmRI strain mice of 3-4 weeks, weighing from 18-21 g.
(§2) In tests 1.1 to 1.5, the animals were first administered the Brewer's thioglycolate medium by i.p. injection, which was followed after 6 hours by the injection of 0.5 ml of a solution containing 25 μg, 2.5 μg and 0.25 μg respectively of N-acetyl-muramyl-L-alanyl-D-isoglutamine (muramyl dipeptide, MDP) or of N-(7-oxooctanoyl)-L-alanyl-D-isoglutamine (compound 1, Example 19). Equal doses were administered to the animals on days 2 and 3. On day 4 the animals were sacrificed and the spleen and the peritoneal macrophages were isolated.
(§3) The peritoneal cavity of the animals was rinsed with 4 ml of ice-cold RPMI 1640 medium. The cytolysis of erythrocytes was effected with 0.2% NaCl. The remaining cells were washed twice in a cooled centrifuge at 4° C. and 1500 rpm for 5 minutes with ice-cold RPMI 1640 medium. The cells were re-suspended and the concentration was adjusted to 1.5×10^6/ml. The cell suspension was distributed among the flat bottom wells of a microtitration plate (T grade, Nunc, Denmark). After incubating for 2 hours at 37° C., 5% CO2 and 95% humidity, the wells were rinsed with warm RPMI 1640 medium and the adhering macrophages were used for testing.
(§4) After incubating for 90 minutes at 37° C., 5% CO2 and 95% humidity, the absorbance was measured at the wavelength of 570 nm.
(§5) The results are shown in Table 2 as the difference in the absorbance of the test sample and of the blank, calculated for 1 mg of cell protein.

[2] = Pyrogenous activity according to the method of USP XXII; assay type: in vivo
Procedure: The pyrogenous activity was determined according to the method of USP XXII.

[3] = tested on: peritoneal macrophages; assay: Activation of peritoneal macrophages without additional in vitro stimulation with PMA (ferricytochrome C reduction); assay type: in vivo, female HAN-NmRI strain mice; settings: for increase of macrophage activity: versus control
Procedure: as §1, §2, §3, §4, §5

[4] = tested on: Fibrosarcoma SA-1; assay: Antitumour activity, tumour growth delay; assay type: in vivo, A/J strain mice; settings: for Time needed for the tumour growth to the volume of 150 mm^3, Number of days (± SD) / Growth delay (± SD): 5 doses; for Time needed for the tumour growth to the volume of 150 mm^3, Number of days (± SD): control 5.5 ± 0.8; for Growth delay (± SD): versus control group
Procedure: The studies were performed on A/J strain mice (Institute Rudjer Boskovic, Zagreb, Yugoslavia) of 8 to 10 weeks. All animals used in the same experiment were of the same sex and age.
Fibrosarcoma SA-1 was used as the experimental tumour model. Tumorous cells were obtained from the ascitic form of the SA-1 tumour of the syngeneic A/J mouse. They were implanted into animals dorsilaterally by s.c. injection of 5×10^5 live tumour cells. The testing was started after the tumours had grown to a volume of 35 mm^3. The test substance was injected i.p. on five consecutive days in a dose of 2.5 or 25 μg. The growth of the tumours was monitored by measuring the diameters and the thickness of the tumours. The tumour volumes were calculated according to the formula 0.523×a×b×c (a, b and c being the tumour diameters).
The delay in the growth of each individual tumour was obtained by deducting the relevant time of growth of the tumour in the control group from the time needed for the growth of the tumour to reach the volume of 150 mm^3.

[5] = tested on: splenic lymphocytes (lymphocytes T); assay: Blast transformation of lymphocytes by mithogens (concanavalin A, tritium labelled thymidine incorporation); assay type: in vivo, female HAN-NmRI strain mice; settings: for Amount of active thymidine incoporated in lymphocyte DNA (cpm), x ± s.e.m: lymphocytes stimulated in vitro with concanavalin A
Procedure: as §1, §2
Isolated splenic lymphocytes were prepared in a concentration of 1×10^6 /ml in the RPMI 1640 medium, to which there were added 10% of foetal calf serum (FCS) (Sera-Lab, Great Britain), 1 ml of 200 mM L-glutamine solution and 1 ml of an antibiotic solution (100 U/ml of penicillin and 100 μg/ml of streptomycin) for 100 ml of complete medium. To each flat bottom well of a microtitration plate (T grade, Nunc, Denmark) 100 μl of the cell suspension were distributed. The cells were stimulated in vitro by adding concanavalin A (con A) (Pharmacia, Sweden) at respective concentrations of 16, 8, and 4 μg/ml. Control lymphocyte cultures were grown in basal medium only. The cells were then incubated at 37° C., 5% CO2 and 95% humidity for 2 days, followed by the addition of tritium labelled thymidine. After 16 hours the samples were prepared for the measurement in a β-counter. The results were expressed as incorporation indexes with respect to the control group of the animals.

[6] = tested on: splenic lymphocytes B and lymphocytes T; assay: Determination of the number of lymphocytes B and lymphocytes T; assay type: in vivo, female HAN-NmRI strain mice; settings: 25, 2.5 and 0.25 μg by injection on 3 consecutive days after Brewer's thioglycolate medium i.p.; spleen isolated day 4
Procedure: as §1, §2
To the isolated splenic lymphocytes there were added fluorescein isothiocyanate labelled antimouse antibodies (for the determination of lymphocytes B) and anti-Thy 1 monoclonal antibodies (for the determination of lymphocytes T) respectively. After incubation and rinsing with RPMI 1640 medium (Gibco, Great Britain), the lymphocytes were counted by fluorescence microscopy.

[7] = tested on: peritoneal macrophages; assay: Determination of the number of macrophages; assay type: in vivo, female HAN-NmRI strain mice; settings: 25, 2.5 and 0.25 μg on 3 consecutive days; peritoneal cavity washings three days after thioglycolate stimulation
Procedure: as §1, §2
The number of macrophages in the peritoneal cavity washings was determined three days after the stimulation with Brewer's thioglycolate medium. The cells were suspended in ice-cold RPMI 1640 medium, to which trypan blue was added, and counted in Neubauer's chamber.

[8] = Toxicity, average lethal dose (LD50); assay type: in vivo
[9] = tested on: lymphocytes B; assay: Determination of haemolytic plaques for the assessment of the maturation of lymphocytes B; assay type: in vivo, female HAN-NmRI strain mice; settings: 1 μg/mouse one day after sheep erythrocytes i.p.; control 86±12.7
Procedure: as §1
A 1% suspension of sheep erythrocytes (Institute of Microbiology, Faculty of Medicine, Ljubljana, Yugoslavia) in physiological saline was used for the immunisation. First, individual mice were administered 0.2 ml of this suspension by i.p. injection, followed next day by 0.1 ml (1 μg/mouse) of the test substance. The immunisation was completed on the fifth day after the administration of sheep erythrocytes and the mice were sacrificed.
Their spleens were removed and homogenized in Parker 199 Medium with added amminoacids, streptomycin and sodium carbonate (Torlak, Beograd, Yugoslavia). The lymphocytes were separated on the Ficol Separating Medium (Pharmacia, Uppsala, Sweden). After repeated rinsing with Parker 199 Medium, the cells were resuspended in RPMI 1640 nutrient medium with added 10% of fetal calf serum and streptomycin. To 50 μl of the cell suspension, 450 μl of trypan blue were added and the cells were counted in Neubauer's chamber. The number of lymphocytes per ml of the cell suspension was calculated. […] After the completion of the incubation, the plaques were counted under microscope.
The number of plaques per 1×10^6 cells was calculated according to the following equations: [formula]

[10] = daily dose 0.25 μg for 3 consecutive days
[11] = daily dose 2.5 μg for 3 consecutive days
[12] = daily dose 25 μg for 3 consecutive days

CC(=O)CCCCCC(=O)N[C@@H](C)C(=O)N[C@H](CCC(=O)O)C(N)=O [Compound 1, N-(7-oxooctanoyl)-L-alanyl-D-isoglutamine]
Difference in absorbancies of the test sample and of the blank per mg of cell protein, x ± s.e.m [1, 10]: 1480 ± 336 | Difference in absorbancies of the test sample and of the blank per mg of cell protein, x ± s.e.m [1, 11]: 1630 ± 297 | Difference in absorbancies of the test sample and of the blank per mg of cell protein, x ± s.e.m [1, 12]: 2200 ± 177 | increase of macrophage activity ([1]; dose 0.25 μg (lowest dose)): about 50% | increase of macrophage activity ([1]; dose 2.5 μg): about 60% | increase of macrophage activity ([1]; dose 25 μg): about 120% | difference in macrophage activation between muramyl dipeptide and compound 1 ([1]; doses of 2.5 and 25 μg, p>0.05): no statistically significant difference | pyrogenous activity [2]: did not show any pyrogenous activity | dose dependence of macrophage activation ([3]; 0.25 to 25 μg): dose-dependent | Difference in absorbancies of the test sample and of the blank per mg of cell protein, x ± s.e.m ([3]; daily dose 0.25 μg): 273 ± 40 | Difference in absorbancies of the test sample and of the blank per mg of cell protein, x ± s.e.m ([3]; daily dose 2.5 μg): 387 ± 56 | Difference in absorbancies of the test sample and of the blank per mg of cell protein, x ± s.e.m ([3]; daily dose 25 μg): 518 ± 20 | increase of macrophage activity ([3]; dose 0.25 μg): did not increase the activity | increase of macrophage activity ([3]; dose 2.5 μg): 40% | increase of macrophage activity ([3]; dose 25 μg): 90% | difference in macrophage activation between muramyl dipeptide and compound 1 ([3]; doses of 2.5 and 25 μg, p>0.05): no statistically significant difference | Time needed for the tumour growth to the volume of 150 mm^3, Number of days (± SD) ([4]; 2.5 μg daily i.p.): 7.3 ± 1.5 days | Growth delay (± SD) ([4]; 2.5 μg daily i.p.): 1.8 ± 0.5 | Time needed for the tumour growth to the volume of 150 mm^3, Number of days (± SD) ([4]; 25.0 μg daily i.p.): 7.0 ± 1.7 days | Growth delay (± SD) ([4]; 25.0 μg daily i.p.): 1.5 ± 0.5 | difference in antitumour activity between the higher and the lower dose ([4]; 25 μg versus 2.5 μg): no statistically significant difference | antitumour activity in comparison to the control ([4]; dose of 2.5 μg and dose of 25 μg): moderate and statistically significant | Amount of active thymidine incoporated in lymphocyte DNA (cpm), x ± s.e.m [5, 10]: 16860 ± 5210 cpm | Amount of active thymidine incoporated in lymphocyte DNA (cpm), x ± s.e.m [5, 11]: 19080 ± 5470 cpm | Amount of active thymidine incoporated in lymphocyte DNA (cpm), x ± s.e.m [5, 12]: 16380 ± 2950 cpm | immunomodulatory effect in lymphocytes T compared with MDP ([5]; dose of 25 μg): statistically greater | increase of the blastic activity of lymphocytes T ([5]; dose of 25 μg, concanavalin A, versus control, p<0.05): about 70% | number of splenic lymphocytes B [6]: Neither the number of splenic lymphocites B nor of lymphocytes T was altered to a statistically significant extent | number of splenic lymphocytes T [6]: Neither the number of splenic lymphocites B nor of lymphocytes T was altered to a statistically significant extent | number of peritoneal macrophages [7]: not altered to a statistically significant extent | factor by which the immunologically effective dose is lower than LD50 ([8]; all described immunological effects): at least 2000 times | average lethal dose (LD50) ([8]; i.v. application, male mice): > 250 mg/kg | number of plaques (per 1×10^6 cells), x±s.e.m [9]: 170±39.9 and 245±75.5

Source: patent US5514654A, “N-acyldipeptides, processes for the preparation thereof and pharmaceutical compositions containing the same” (priority 1990, dated 1996)
